Test results: patent US10870630B2, “Substituted bicyclic heteroaryl allosteric modulators of nicotinic acetylcholine receptors” (Merck Sharp & Dohme Corp., priority 2016, dated 2020)
Like-named read-outs stand apart in the source and are kept apart here.

Biological target: human α7 nicotinic acetylcholine receptor (α7 nAChR) (Homo sapiens, UniProt P36544)
Assay: Automated patch-clamp electrophysiology functional assay (Assay A)
Assay type: cell-based
Conditions: HEK cell line stably expressing human RIC-3 and human α7, IonFlux HT whole-cell population patch, 40 μM acetylcholine
Method: The α7 nAChR positive allosteric modulator (PAM) activity of the present compounds may be tested using assays known in the art. The α7 nAChR PAMs described herein have activities in an automated patch-clamp electrophysiology functional assay as described in the examples. The assay was performed using the IonFlux HT in a whole-cell, population patch configuration. See Golden et al. Assay Drug Dev. Technol. (2011) 9:608-619. The compounds were assessed for their ability to modulate the function of the human […] nAChR stably expressed in a HEK cell line both in the presence, and in the absence of the natural 07 agonist acetylcholine. By performing a series of such measurements at different concentrations, the effective concentration of the α7 nAChR PAMs (EC50) was determined. See Spencer et al. Assay Drug Dev. Technol. (2012) 10:313-324.
Automated patch-clamp electrophysiology was performed using the IonFlux HT (Fluxion Biosciences Inc., San Francisco, Calif.) in the whole-cell, population patch configuration. Test compounds were assessed for their ability to modulate the function of the α7 nicotinic acetylcholine receptor both in the presence, and in the absence of the natural α7 agonist acetylcholine. A HEK cell line stably expressing both human RIC-3 and human α7 (PrecisION hnAChR α7/RIC-3, Eurofins Pharma, St. Charles, Mo.) was cultured in 175 cm^2 triple-layer tissue culture flasks to no more than 90% confluency in DMEM/F-12 growth media supplemented with 10% heat-inactivated fetal bovine serum, 1% non-essential amino acids, 0.625 μg/mL Puromycin, and 400 μg/mL Geneticin. Immediately prior to assay, cells were detached by first aspirating growth media, rinsing with Dulbecco's phosphate buffered saline, and then adding 10 mL of Accutase (Innovative Cell Technologies, San Diego, Calif.) to the flask and then incubating at 37° C. for 5 minutes. Detached cells were then recovered by the addition of 40 mL of CHO-serum-free media supplemented with 25 mM HEPES, and rocked gently in a 50 mL conical tube for 20 minutes prior to patch-clamp assay. After recovery, cells were pelleted by centrifugation at 1,000 RPM for 1 minute in a compact bench top centrifuge; recovery media was aspirated and cells were resuspended in external recording solution (150 mM NaCl, 5 mM KCl, 2 mM CaCl2, 1 mM MgCl2, 10 mM HEPES, 12 mM dextrose) to a density of 5.0×10^6 cells/mL. The cell suspension was added to the cell inlet wells on an IonFlux HT population patch plate which had previously been rinsed and primed with deionized H2O. Test compounds were serially diluted in DMSO and then resuspended to the final test concentration in external recording solution, with, or without 40 μM acetylcholine added to the external recording solution; test compounds were then transferred to the IonFlux HT population patch plate. Internal recording solution (110 mM TrisPO4, 28 mM TrisBase, 0.1 mM CaCl2, 2 mM MgCl2, 11 mM EGTA, 4 mM MgATP) was added to the internal recording solution inlet wells on the IonFlux HT patch plate previously loaded with cells and test compounds, and the plate loaded into the IonFlux HT instrument. A protocol was executed on the IonFlux HT to trap the cells, break into the cells, and establish the whole-cell recording configuration; cells were voltage-clamped at a holding potential of −60 mV for the duration of the experiment, all experiments were conducted at room temperature, and the IonFlux HT injection pressure was 8 psi for solution applications. Upon establishing the whole-cell configuration, external recording solution was perfused into the recording chambers for 120 seconds and then 40 μM acetylcholine was applied for 1 second and immediately washed off with external recording solution for 60 seconds. The 40 μM acetylcholine-evoked α7 current served as the current response to which subsequent test compound effects, in the presence, or in the absence of 40 μM acetylcholine would be quantified relative to. […]

human α7 nicotinic acetylcholine receptor (α7 nAChR), sequence (P36544 23-502): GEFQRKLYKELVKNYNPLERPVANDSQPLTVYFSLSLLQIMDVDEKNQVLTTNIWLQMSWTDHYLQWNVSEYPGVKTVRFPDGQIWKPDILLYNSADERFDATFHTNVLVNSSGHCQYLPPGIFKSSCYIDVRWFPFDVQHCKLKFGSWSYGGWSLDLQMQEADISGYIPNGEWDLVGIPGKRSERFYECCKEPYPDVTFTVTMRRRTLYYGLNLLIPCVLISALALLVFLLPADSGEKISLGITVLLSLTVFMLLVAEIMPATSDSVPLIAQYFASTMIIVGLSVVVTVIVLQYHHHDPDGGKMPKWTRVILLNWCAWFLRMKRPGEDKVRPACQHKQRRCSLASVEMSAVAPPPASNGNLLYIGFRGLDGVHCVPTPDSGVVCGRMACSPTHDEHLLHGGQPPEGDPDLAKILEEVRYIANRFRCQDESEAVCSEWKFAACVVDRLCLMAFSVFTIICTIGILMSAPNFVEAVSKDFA

Row | Structure (SMILES) | EC50 (read-out: α7 nAChR EC50) [nM] | EC50 (read-out: α7 nAChR Potency) [nM]
1 | CC1(C)[C@@H](c2ccc(S(N)(=O)=O)cc2)[C@@H]1c1nc2ccccc2s1 [Example 9] | 350 | 100 to 500
2 | CC1(C)[C@@H](c2ccc(S(N)(=O)=O)cc2)[C@@H]1c1nc2ccccc2o1 [Example A4, 4-[(1S,3S)-3-(1,3-Benzoxazol-2-yl)-2,2-dimethyl-cyclopropyl]benzenesulfonamide] | 280 | 100 to 500
3 | NS(=O)(=O)c1ccc([C@@H]2C[C@H]2c2ncc3ccccc3n2)cc1 [Example 3, 4-[(1R,2R)-2-(Quinazolin-2-yl)cyclopropyl]benzenesulfonamide] | 370 | 100 to 500
4 | CC1(C)[C@@H](c2ccc(S(N)(=O)=O)cc2)[C@@H]1c1nc2ccc(F)cc2s1 [Example 10, 4-((1S,3S)-3-(6-Fluorobenzo[d]thiazol-2-yl)-2,2-dimethylcyclopropyl)benzenesulfonamide] | 450 | 100 to 500
5 | CC1(C)[C@H](c2ccc(S(N)(=O)=O)cc2)[C@H]1c1ncc2c(n1)CCCC2 [Example 12, 4-[(R,3R)-2,2-Dimethyl-3-(5,6,7,8-tetrahydroquinazolin-2-yl)cyclopropyl]benzenesulfonamide] | 2500 | 500 to 5000
6 | NS(=O)(=O)c1ccc([C@@H]2C[C@H]2c2nc3ccccc3o2)cc1 [Example 5, 4-[(1R,2R)-2-(1,3-Benzoxazol-2-yl)cyclopropyl]benzenesulfonamide] | 160 | 100 to 500
7 | CC1(C)[C@@H](c2ccc(S(N)(=O)=O)cc2)[C@@H]1c1nc2ccc(Cl)cc2o1 [Example A5, 4-[(1S,3S)-3-(6-Chloro-1,3-benzoxazol-2-yl)-2,2-dimethyl-cyclopropyl]benzenesulfonamide] | 1200 | 500 to 5000
8 | CC1(C)OC([C@H]2[C@H](c3ccc(S(N)(=O)=O)cc3)C2(F)F)=Nc2ccccc21 [Example 13, 4-[(1R,3R)-3-(4,4-Dimethyl-4H-3,1-benzoxazin-2-yl)-2,2-difluorocyclopropyl]benzenesulfonamide] | 1800 | 500 to 5000
9 | CC1(C)[C@H](c2ccc(S(N)(=O)=O)cc2)[C@H]1c1nc2c(o1)CCC2 [Example 11, 4-[(1R,3R)-3-(5,6-Dihydro-4H-cyclopenta[d][1,3]oxazol-2-yl)-2,2-dimethylcyclopropyl]benzenesulfonamide] | 2000 | 500 to 5000
10 | NS(=O)(=O)c1ccc([C@@H]2C[C@H]2c2nc3ccc(F)cc3o2)cc1 [Example A2, 4-[(1R,2R)-2-(6-Fluoro-1,3-benzoxazol-2-yl)cyclopropyl]benzenesulfonamide] | 60 | ≤ 100
11 | NS(=O)(=O)c1ccc([C@@H]2C[C@H]2c2cnc3ccccc3n2)cc1 (relative stereo) [Example 7, 4-[trans-2-(Quinoxalin-2-yl)cyclopropyl]benzenesulfonamide] | 1300 | 500 to 5000

Continued, values first:

Row | EC50 (read-out: α7 nAChR EC50) [nM] | EC50 (read-out: α7 nAChR Potency) [nM] | Structure (SMILES)
12 | 170 | 100 to 500 | CC1(C)[C@H](c2ccc(S(N)(=O)=O)cc2)[C@H]1c1nc2ccc(F)cc2s1 [Example B9, 4-[(1R,3R)-3-(6-Fluoro-1,3-benzothiazol-2-yl)-2,2-dimethyl-cyclopropyl]benzenesulfonamide]
13 | 3400 | 500 to 5000 | CC1(C)[C@H](c2ccc(S(N)(=O)=O)cc2)[C@H]1c1nc2ccncc2o1 [Example D2, 4-[(1R,3R)-2,2-Dimethyl-3-oxazolo[5,4-c]pyridin-2-yl-cyclopropyl]benzenesulfonamide]
14 | – | 5000 to 50000 | NS(=O)(=O)c1ccc(C2CC2c2cc3n(n2)CCCC3)cc1 (racemic) [Example E10, 4-[2-(4,5,6,7-Tetrahydropyrazolo[1,5-a]pyridin-2-yl)cyclopropyl]benzenesulfonamide]
15 | 1400 | 500 to 5000 | CC1(C)[C@@H](c2ccc(S(N)(=O)=O)cc2)[C@@H]1c1ncc2ccccc2n1 [Example C1, 4-[(1S,3S)-2,2-Dimethyl-3-quinazolin-2-yl-cyclopropyl]benzenesulfonamide]
16 | – | 500 to 5000 | NS(=O)(=O)c1ccc([C@H]2C[C@@H]2c2nc3ccccc3o2)cc1 [Example B4, 4-[(1S,2S)-2-(1,3-Benzoxazol-2-yl)cyclopropyl]benzenesulfonamide]
17 | – | 100 to 500 | CC1(C)[C@H](c2ccc(S(N)(=O)=O)cc2)[C@H]1c1nc2c(F)cc(F)cc2o1 [Example B1, 4-[(1R,3R)-3-(4,6-Difluoro-1,3-benzoxazol-2-yl)-2,2-dimethyl-cyclopropyl]benzenesulfonamide]
18 | – | 500 to 5000 | NS(=O)(=O)c1ccc(C2CC2c2cnc3cc(Cl)cnc3c2)cc1 (racemic) [Example E2, 4-[2-(7-Chloro-1,5-naphthyridin-3-yl)cyclopropyl]benzenesulfonamide]
19 | – | 500 to 5000 | CC1(C)[C@H](c2ccc(S(N)(=O)=O)cc2)[C@H]1c1nc2c(o1)CCCC2 [Example D3, 4-[(1R,3R)-2,2-Dimethyl-3-(4,5,6,7-tetrahydro-1,3-benzoxazol-2-yl)cyclopropyl]benzenesulfonamide]
20 | 1100 | 500 to 5000 | CC1(C)OC([C@@H]2[C@@H](c3ccc(S(N)(=O)=O)cc3)C2(F)F)=Nc2ccccc21 [Example D5, 4-[(1S,3S)-3-(4,4-Dimethyl-4H-3,1-benzoxazin-2-yl)-2,2-difluorocyclopropyl]benzenesulfonamide]
21 | 120 | 100 to 500 | CC1(C)[C@@H](c2ccc(S(N)(=O)=O)cc2)[C@@H]1c1nc2c(o1)CCCC2 [Example C3, 4-[(1S,3S)-2,2-Dimethyl-3-(4,5,6,7-tetrahydro-1,3-benzoxazol-2-yl)cyclopropyl]benzenesulfonamide]
22 | – | 500 to 5000 | NS(=O)(=O)c1ccc(C2CC2c2ccc3cc(C(F)(F)F)nnc3c2)cc1 (racemic) [Example E5, 4-[2-[3-(Trifluoromethyl)cinnolin-7-yl]cyclopropyl]benzenesulfonamide]
23 | 5000 | 500 to 5000 | Cn1cc2ccc(C3CC3c3ccc(S(N)(=O)=O)cc3)cc2n1 (racemic) [Example E12, 4-[2-(2-Methylindazol-6-yl)cyclopropyl]benzenesulfonamide]
24 | – | 100 to 500 | CC1(C)[C@H](c2ccc(S(N)(=O)=O)cc2)[C@H]1c1nc2c(F)cc(F)cc2s1 [Example B8, 4-[(1R,3R)-3-(4,6-Difluoro-1,3-benzothiazol-2-yl)-2,2-dimethyl-cyclopropyl]benzenesulfonamide]
25 | 3400 | 500 to 5000 | CC1(C)[C@H](c2ccc(S(N)(=O)=O)cc2)[C@H]1c1nc2ccccc2s1 [Example B3, 4-[(1R,3R)-3-(1,3-Benzothiazol-2-yl)-2,2-dimethyl-cyclopropyl]benzenesulfonamide]
26 | – | 100 to 500 | CC1(C)[C@H](c2ccc(S(N)(=O)=O)cc2)[C@H]1c1nc2ccc(Cl)cc2o1 [Example B5, 4-[(1R,3R)-3-(6-Chloro-1,3-benzoxazol-2-yl)-2,2-dimethyl-cyclopropyl]benzenesulfonamide]
27 | 880 | 500 to 5000 | CN1CCOc2cc(C3CC3c3ccc(S(N)(=O)=O)cc3)cnc21 (racemic) [Example E13, 4-[2-(4-Methyl-2,3-dihydropyrido[3,2-b][1,4]oxazin-7-yl)cyclopropyl]benzenesulfonamide]
28 | 7200 | 5000 to 50000 | CC1(C)[C@H](c2ccc(S(N)(=O)=O)cc2)[C@H]1c1ncc2ccccc2n1 [Example D1, 4-[(1R,3R)-2,2-Dimethyl-3-quinazolin-2-yl-cyclopropyl]benzenesulfonamide]
